# Data reported in paper PMC3409661 (Radiation research, 2012).
# Where two headings read alike, the source gives them in different places.
# Legend:
# [1] = system: S. typhimurium strain TA98; assay type: cell-based, Salmonella typhimurium
# [2] = system: S. typhimurium strain TA100; assay type: cell-based, Salmonella typhimurium
# [3] = system: diploid human fibroblasts; test: Human cell growth inhibition; assay type: cell-based; conditions: PrC-210 in medium for 30 h before cell counting
# p21 = test: Western blot for p21 expression in nuclear extracts; assay type: cell-based, human; conditions: 4.1 mM PrC-210 for 30 h vs untreated cells
# [4] = pH and disulfide formation of aqueous PrC-210 solutions; assay type: physicochemical; conditions: for PrC-210 disulfide in solution: aqueous
# [5] = Distribution of [14C] PrC-210 topically applied to rat skin; conditions: for Recovery (carcass) / Recovery (skin) = skin (dose site) + skin wash / Recovery (total): 48 h
# [6] = system: supercoiled pUC19 plasmid DNA; test: Protection of plasmid DNA against ROS-induced nicking; assay type: biochemical; conditions: PrC-210 0–70 mM added before hydroxyl radical generating system
# [7] = system: diploid human fibroblasts; test: Flow cytometry cell-cycle analysis; assay type: cell-based
# ICR mice [8] = test: Mouse radiation survival assay; assay type: in vivo
# ICR mice [9] = test: Mouse aminothiol toxicity assay; assay type: in vivo
# [10] = cited from earlier work
# [11] = system: Sprague-Dawley rat dorsal skin; test: Rat dorsal skin radiodermatitis assay; assay type: in vivo
# rat = rat model, 0.5× mouse MTD; cited from earlier work
# CHO K1 cells = conditions: reported in one setting; cited from earlier work
# humans = conditions: cited from earlier work
# ICR mice [12] = conditions: known radioprotectors, value quoted for comparison, no reference given; cited from earlier work
# ferret = ferret model, 0.5× mouse MTD; cited from earlier work
# [13] = 87 μM (so in the source), positive control
# [14] = Group 2: 1850 mM dermal, without norepinephrine
# [15] = Group 3: 1850 mM dermal, with 300 mM norepinephrine
compound,measurement,setting,value
"Nc1cccc2cc3ccccc3cc12 [Aminoanthracene, reference compound]",Colonies/plate (mean ± SD) Strain TA98 +S9,[1]; [13],177 Colonies/plate
same,Colonies/plate (mean ± SD) Strain TA98 −S9,[1]; [13],>1800 Colonies/plate
same,Colonies/plate (mean ± SD) Strain TA100 +S9,[2]; [13],570 ± 90 Colonies/plate
CNCC(CS)CNC [PrC-210],"IC70 dose, inhibition of cell growth",[3],4.1 mM
same,p21 protein level in nuclear extracts,p21,significantly elevated
same,Colonies/plate (mean ± SD) Strain TA98 −S9,[1]; 30 μM,43 ± 2 Colonies/plate
same,Colonies/plate (mean ± SD) Strain TA98 +S9,[1]; 100 μM,64 ± 4 Colonies/plate
same,Colonies/plate (mean ± SD) Strain TA98 −S9,[1]; 100 μM,51 ± 6 Colonies/plate
same,Colonies/plate (mean ± SD) Strain TA98 +S9,[1]; 400 μM,55 ± 3 Colonies/plate
same,Colonies/plate (mean ± SD) Strain TA98 −S9,[1]; 400 μM,58 ± 14 Colonies/plate
same,Colonies/plate (mean ± SD) Strain TA98 +S9,[1]; 1000 μM,54 ± 6 Colonies/plate
same,Colonies/plate (mean ± SD) Strain TA98 −S9,[1]; 1000 μM,53 ± 3 Colonies/plate
same,Colonies/plate (mean ± SD) Strain TA98 +S9,[1]; 4100 μM,55 Colonies/plate
same,Colonies/plate (mean ± SD) Strain TA98 −S9,[1]; 4100 μM,55 ± 5 Colonies/plate
same,Colonies/plate (mean ± SD) Strain TA98 +S9,[1]; 7000 μM,65 ± 9 Colonies/plate
same,Colonies/plate (mean ± SD) Strain TA98 −S9,[1]; 7000 μM,51 ± 5 Colonies/plate
same,mutagenicity: frameshift mutations (strain TA98),[1]; concentrations up to 7 mM,neither frameshift mutations
same,pH on dissolution in water,[4]; HCl salt dissolved in water,~ 3.0
same,PrC-210 disulfide in solution,"[4]; pH 5.5, 1 week at room temperature in the dark",< 1%
same,PrC-210 disulfide in solution,"[4]; pH 8.0, 1 week at room temperature in the dark",> 98%
same,systemic dose after topical application,"[5]; 300 g rats, 1.1 mg absorbed, over 48 h (lowest)",3.7 μg/g BW
same,estimated mass that crossed the skin barrier and entered systemic circulation,"[5]; Group 1, over 48 h (16.28 mg × 6.7%)",1.1 mg
same,Cmax (radioactivity in plasma),"[5]; Group 1: 370 mM dermal, 16.28 mg applied",257 ng-eq/g
same,Recovery (carcass),[5]; Group 1: 370 mM dermal,0.52%
same,Recovery (skin) = skin (dose site) + skin wash,[5]; Group 1: 370 mM dermal,41.54%
same,Recovery (total),[5]; Group 1: 370 mM dermal,49.4%
same,Recovery (carcass),[5]; [14],1.84%
same,Recovery (skin) = skin (dose site) + skin wash,[5]; [14],47.16%
same,Recovery (total),[5]; [14],66.0%
same,estimated mass that crossed the skin barrier and entered systemic circulation,"[5]; Group 3, over 48 h",6.8 mg
same,Cmax (radioactivity in plasma),"[5]; Group 3: 1850 mM dermal, 81.40 mg applied, with 300 mM norepinephrine",726 ng-eq/g
same,Recovery (carcass),[5]; [15],1.53%
same,Recovery (skin) = skin (dose site) + skin wash,[5]; [15],60.46%
same,Recovery (total),[5]; [15],70.0%
same,share of absorbed radioactivity eliminated by the urine,[5]; after dermal dose,≥ 90%
same,transfer of topically applied PrC-210 into systemic circulation,"[5]; over 48 h following topical administration, across groups",6–15%
same,14C cpm in blood remaining soluble after TCA precipitation,"[5]; rat blood samples, preliminary analysis (not shown)",less than 10%
same,protection of supercoiled plasmid DNA against ROS-induced nicking,[6],complete protection
same,S-phase fraction of cells after washout,"[7]; 4.1 mM PrC-210 30 h, then washout and fresh medium 48 h",40%
same,S-phase fraction of cells,"[7]; 4.1 mM PrC-210 for 30 h, control 53%",8%
same,type of cell cycle block,[7]; PrC-210-treated normal human fibroblasts,G1/S cell cycle block
same,dose reduction factor (DRF),"ICR mice [8]; i.p. 211 μg/g BW 30 min before increasing radiation doses, survival to day 35",1.6
same,survival,ICR mice [8]; i.p. 211 μg/g BW (0.5× MTD best fit) 30 min before 8.63 Gy whole-body radiation,98%
same,survival,ICR mice [8]; i.p. 252 μg/g BW 30 min before 8.75 Gy (otherwise 100% lethal),100%
same,survival,ICR mice [8]; i.p. 252 μg/g BW (0.5× MTD probit) 30 min before 8.63 Gy whole-body radiation,100%
same,i.p. MTD (= i.p. LD10 dose),ICR mice [9]; extrapolated from the best fit curve (Fig. 8A),422 μg/g BW
same,LD10 dose,"ICR mice [9]; i.p., probit analysis of percentage survival data",504 μg/g BW
same,toxic response,ICR mice [9]; single i.p. 500 μg/g BW,"either a transient response in which the mice are sleepy but then rebound over several hours and survive, or they die within 1–2 h"
same,lethality,"ICR mice [9]; single i.p. 700 μg/g BW, severe muscle spasm then death within min",100%
same,oral activity,[10],active when taken orally
same,protection against radiation dermatitis,[11]; 1 to 2 topical applications only,much less protection
same,prevention of radiation dermatitis,[11]; four topical applications over 2 h before irradiation (Fig. 5F),98%
same,"prevention of radiation dermatitis, systemic administration",[11]; i.p. 200 μg/g BW 30 min before 17.3 Gy,complete prevention
same,"radiodermatitis prevention, structure-activity study","[11]; topical 370 mM, thiol plus charged alkyl-amine backbone (Fig. 6)",100%
same,"protection against radiation dermatitis, aqueous vehicle",[11]; topical 1500 mM in vehicles containing 75% water,still conferred protection
same,prevention of Grade 2–3 radiation dermatitis by increasing topical doses,[11]; topical application to rat skin before irradiation vs vehicle controls,completely prevented
same,"prevention of Grade 3 radiation dermatitis, topical","[11]; topical, at or above 370 mM, 17.3 Gy, scored 13 days after irradiation",completely prevented
same,IC100 dose for radiation dermatitis,"[11]; topical, vehicle 0:95:5 (ethanol:propylene glycol:water)",1500 mM
same,IC100 dose for radiation dermatitis,"[11]; topical, vehicle 50:30:20 (ethanol:propylene glycol:water)",370 mM
same,hypotension response,rat,nor hypotension response
same,Colonies/plate (mean ± SD) Strain TA100 +S9,[2]; 30 μM,119 Colonies/plate
same,Colonies/plate (mean ± SD) Strain TA100 −S9,[2]; 30 μM,121 ± 8 Colonies/plate
same,Colonies/plate (mean ± SD) Strain TA100 +S9,[2]; 100 μM,127 ± 8 Colonies/plate
same,Colonies/plate (mean ± SD) Strain TA100 −S9,[2]; 100 μM,116 ± 22 Colonies/plate
same,Colonies/plate (mean ± SD) Strain TA100 +S9,[2]; 400 μM,144 ± 14 Colonies/plate
same,Colonies/plate (mean ± SD) Strain TA100 −S9,[2]; 400 μM,128 Colonies/plate
same,Colonies/plate (mean ± SD) Strain TA100 +S9,[2]; 1000 μM,148 ± 5 Colonies/plate
same,Colonies/plate (mean ± SD) Strain TA100 −S9,[2]; 1000 μM,101 ± 19 Colonies/plate
same,Colonies/plate (mean ± SD) Strain TA100 +S9,[2]; 4100 μM,115 ± 33 Colonies/plate
same,Colonies/plate (mean ± SD) Strain TA100 −S9,[2]; 4100 μM,134 ± 20 Colonies/plate
same,Colonies/plate (mean ± SD) Strain TA100 +S9,[2]; 7000 μM,149 ± 18 Colonies/plate
same,Colonies/plate (mean ± SD) Strain TA100 −S9,[2]; 7000 μM,128 ± 11 Colonies/plate
same,mutagenicity: point mutations (strain TA100),[2]; concentrations up to 7 mM,nor point mutations
"NCCCNCCS [WR-1065, 2-[(aminopropyl)amino]ethanethiol]",type of cell cycle block,CHO K1 cells,G2/M cell cycle block
NCCCNCCSP(=O)(O)O [amifostine],systemic toxicities,humans; human amifostine use,"significant systemic toxicities (nausea/emesis, hypotension/fainting)"
same,efficacy when applied topically to skin or mucosa,humans; humans,has not been effective
same,dose reduction factor (DRF),ICR mice [12],1.6
same,hypotension response,rat,elicits both responses
same,retch/vomit response,ferret,elicits both responses
